Entries after “also recorded” stand apart in the source; their conditions may differ.
Key:
[1] = tested on: TCCSUP human bladder cancer cell line; test: Cell proliferation of TCCSUP bladder cancer cells; assay type: cell-based; details: for Proliferation of TCCSUP human bladder cancer cells: 0.1-10 μM, cell growth over 4-10 days; for Lowest concentration at which TCCSUP cells were inhibited: lowest concentration tested
Experimental: (§1) Initial studies used TCCSUP and J82 human bladder cancer cell lines that were maintained in RPMI culture media supplemented with 10% fetal bovine serum. Cell proliferation studies were carried out in multi-well plates, and compounds (in DMSO, 0.1% vol./vol.) were added and cell growth was determined over a period of 4 10 days. The growth inhibitory properties of DIM and related analogs were determined using the following prototypical compounds: DIM, 5,5′-dimethylDIM (5-Me-DIM), 2,2′-dimethylDIM (2-Me-DIM), and 5,5′-dichloroDIM (5-Cl-DIM) at concentrations from 0.1 10 μM.
as §1, with “Initial studies on the possible protective role for DIM compounds in bladder cancer used TCCSUP” for “Initial studies used TCCSUP”

[2] = tested on: J82 human bladder cancer cell line; test: Cell proliferation of J82 bladder cancer cells; assay type: cell-based; details: 0.1-10 μM, cell growth over 4-10 days
Experimental: as §1
as §1, with “Initial studies on the possible protective role for DIM compounds in bladder cancer used TCCSUP” for “Initial studies used TCCSUP”

[3] = tested on: HT-29 human colon cancer cells; test: Cell proliferation and apoptosis of HT-29 colon cancer cells; assay type: cell-based
Experimental: (§2) Studies with HT-29 human colon cancer cells also indicate that DIM and related analogs protect against colon cancer. HT-29 cells were grown in DMEM and serum and treated with 25 μM DIM and 4,4′-dichloroDIM. After 72 hr, there was a 73 and 92% decrease in cell proliferation, respectively, and these antiproliferative effects could be observed with cell concentrations as low as 10 μM.
as §2, with “Preliminary studies” for “Studies”, “hours,” for “hr,”, “with” for “with cell”

[4] = tested on: mitogen-activated protein kinase (MAPKK); test: MAPKK-induced pSRE reporter activity in MCF-7 cells; assay type: cell-based; details: 1 or 5 μM, MCF-7 cells transfected with pMAPKK and pSRE
Description: Therefore, we have been investigating the inhibitory effects of DIMs on kinase activities and our initial studies have examined inhibition of mitogen-activated protein kinase (MAPKK) which regulates expression of multiple genes involved in cell proliferation. MCF-7 cells are transfected with a constitutively active MAPKK expression plasmid (pMAPKK), and induction of activity is monitored through activation of the construct pSRE which contains a MAPKK-inducible serum response element (SRE) from the cfos protooncogene (Duan et al., “Estrogen receptor-mediated activation of the serum response element in MCF-7 cells through MAPK-dependent phosphorylation of Elk-1” J. Biol. Chem. 276:11590 11598, 2001).

PPARγ = biological target: T1, PPARγ (Homo sapiens, UniProt P37231); test: pGAL4-PPARγ / pGAL45 luciferase reporter assay in MCF-7 breast cancer cells; assay type: cell-based; details: 5 μM
T1 construct: expressed in transfected cells; host or cells: MCF-7 breast cancer cells
T1 sequence (P37231 238-503 limits assumed): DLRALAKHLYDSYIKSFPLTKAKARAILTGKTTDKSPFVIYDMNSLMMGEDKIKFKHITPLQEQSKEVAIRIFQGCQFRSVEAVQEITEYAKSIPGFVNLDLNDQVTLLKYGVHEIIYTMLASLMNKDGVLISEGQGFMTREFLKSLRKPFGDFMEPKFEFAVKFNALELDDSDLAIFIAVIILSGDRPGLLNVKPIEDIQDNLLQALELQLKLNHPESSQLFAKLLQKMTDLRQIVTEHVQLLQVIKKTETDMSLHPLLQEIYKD
Description: Peroxisome proliferator-activated receptor (PPAR) is a nuclear receptor that induces differentiation in multiple tissues and cell lines. Synthetic compounds that bind PPAR (inhibit growth, induce differentiation in multiple tumor cell lines, and inhibit mammary carcinogenesis in rodent models (Mueller et al., “Terminal differentiation of human breast cancer through PPAR” Mol. Cell. 1:465 470, 1998; Elstner et al., “Ligands for peroxisome proliferator-activated receptor gamma and retinoic acid receptor inhibit growth and induce apoptosis of human breast cancer cells in vitro and in BNX mice” Proc. Natl. Acad. Sci. USA 95:8806 8811, 1998; Brockman et al., “Activation of PPARγ leads to inhibition of anchorage independent growth of human colorectal cancer cells” Gastroenterology 115:2049 1055, 1998; Tontonoz et al., “Terminal differentiation of human lipsarcoma cells induced by ligands for peroxisome proliferator-activated receptor and the retinoid X receptor” Proc. Natl. Acad. Sci. USA 94:237 241, 1997; Suh et al., “A new ligand for the peroxisome proliferator-activated receptor-PPAR, GW7845, inhibits rat mammary carcinogenesis” Cancer Res. 59:56715673, 1999). […] Ligand activation of pGAL4-PPARγ is detected using a construct containing five tandem GAL4 response elements (pGAL45) linked to a luciferase reporter gene.

[5] = tested on: 22Rv1 human prostate cancer cells; test: Proliferation of 22Rv1 prostate cancer cells; assay type: cell-based; details: 1 nM TCDD
[6] = tested on: CYP1A1-dependent ethoxyresorufin O-deethylase (EROD) activity; test: Induction of EROD activity in LnCAP prostate cancer cells; assay type: cell-based, human
Description: (§3) Results illustrated below summarize the concentration-dependent induction of CYP1A1-dependent ethoxyresorufin O-deethylase (EROD) activity by DIM and TCDD in androgen-nonresponsive PC3 human prostate cancer cells (FIG. 12). […] We also investigated the induction of EROD activity in two additional androgen-responsive prostate cancer cell lines.

[7] = tested on: CYP1A1-dependent ethoxyresorufin O-deethylase (EROD) activity; test: Induction of EROD activity in PC3 prostate cancer cells
Description: as §3

[8] = tested on: CYP1A1-dependent ethoxyresorufin O-deethylase (EROD) activity; test: Induction of EROD activity in 22Rv1 prostate cancer cells; details: treatment for 24 hrs; TCDD 0.1 to 10 nM
Description: as §3

Structure (SMILES): Cc1[nH]c2ccccc2c1Cc1c(C)[nH]c2ccccc12 [2,2′-dimethylDIM, 2,2′-dimethyl-diindolylmethane]
- Proliferation of TCCSUP human bladder cancer cells [1]: significantly inhibited
- Lowest concentration at which TCCSUP cells were inhibited [1]: 0.1 µM
- Proliferation of J82 human bladder cancer cells [2]: significantly inhibited

Structure (SMILES): Clc1cccc2[nH]cc(Cc3c[nH]c4cccc(Cl)c34)c12 [4,4′-dichloroDIM]
- Lowest concentration at which antiproliferative effects could be observed in HT-29 cells [3]: 10 µM
- Programmed cell death accompanying growth inhibition in HT-29 cells [3]: programmed cell death, or apoptosis; also recorded: programmed cell death or apoptosis
- Decrease in HT-29 cell proliferation ([3]; 25 μM, after 72 hr): 92%

Structure (SMILES): Clc1ccc2[nH]cc(Cc3c[nH]c4ccc(Cl)cc34)c2c1 [5,5′-dichloroDIM, 5,5′-dichloro-diindolylmethane]
- Proliferation of TCCSUP human bladder cancer cells [1]: significantly inhibited
- Lowest concentration at which TCCSUP cells were inhibited [1]: 0.1 µM
- Proliferation of J82 human bladder cancer cells [2]: significantly inhibited

Structure (SMILES): Cc1ccc2[nH]cc(Cc3c[nH]c4ccc(C)cc34)c2c1 [5,5′-dimethylDIM, 5,5′-dimethyl-diindolylmethane]
- Proliferation of TCCSUP human bladder cancer cells [1]: significantly inhibited
- Lowest concentration at which TCCSUP cells were inhibited [1]: 0.1 µM
- Proliferation of J82 human bladder cancer cells [2]: significantly inhibited
- MAPKK-induced (pSRE) activity [4]: inhibited MAPKK-induced activity

Structure (SMILES): Cc1ccc2c(Cc3c[nH]c4cc(C)ccc34)c[nH]c2c1 [6,6′-dimethlyDIM]
- MAPKK-induced (pSRE) activity [4]: inhibited MAPKK-induced activity

Structure (SMILES): CCCCC/C=C/C=C1/C(=O)C=C[C@@H]1C/C=C\CCCC(=O)O [PGJ, 15-deoxy-γ^12,14-prostaglandin J2]
- Increase in reporter gene (luciferase) activity, pGAL4-PPARγ (PPARγ): 2 fold

Structure (SMILES): Clc1cc2c(cc1Cl)Oc1cc(Cl)c(Cl)cc1O2 [TCDD, 2,3,7,8-tetrachlorodibenzo-p-dioxin]
- Proliferation of 22Rv1 human prostate cancer cells [5]: inhibited proliferation
- Induction of EROD activity in LnCAP cells [6]: significant induction of EROD activity
- Treatment time of maximal EROD induction in PC3 cells ([7]; 10 nM TCDD): 96 h
- Induction of EROD activity in PC3 cells ([7]; 10 μM DIM, 10 nM TCDD): induced EROD activity
- Induction of EROD activity in PC3 cells after 24 hours ([7]; 24 hours): minimal (but significant) induction
- Induction of EROD activity in 22Rv1 cells [8]: induced EROD activity

Source: patent publication US8389563B2, “C-substituted diindolylmethane compositions and methods for the treatment of multiple cancers” (The Texas A&M University System, priority 2000, dated 2013)
